Here are results for one compound from patent publication US10220025B1, “Self-emulsifying formulation of CARP-1 functional mimetics” (Florida A&M University, priority 2016, dated 2019).

One data set has as its system HUVECs. The data set is described as follows: in vitro tubule formation (angiogenesis) assay. The format is cell-based, human. Particulars: 12 hours; FIG. 11A. Here is the method: The growth of tubules was monitored over a period of 12 hours. The cells growth in the scratch assay was recorded by photography. Representative photomicrographs of control and treated cells are presented.
It was next investigated whether CFM-4.16 inhibited TNBC cell migration and growth as colonies in soft agar and 3-dimensional cultures in vitro. In addition, an in vitro tubule formation assay was conducted to determine anti-angiogenic properties of CFM-4.16. […] Moreover, treatments with CFM-4 or CFM-4.16 prevented the parental as well as drug (ADR- or cisplatin-) resistant TNBC sublines and the parental and Herceptin-resistant, Her-2-positive SKBR-3 cells from growing in the areas of wound caused by a scratch (FIGS. 11B, 11C, 12A, 12B, 13A, and 13B).

For the next data set, the system named is MDA-MB-231 TNBC cells. Particulars: 470 mg/kg, Qd 1-19, iv, DMSO plus cremophor; not shown.
Data set [1] is described as follows: maximal tolerated dose determination. The format is in vivo. From the text: J. Biomed. Nanotechnol. 2015; 11:1608-1627]. […] Results was expressed as percentage.
Data set [2] has as its system MDA-MB-231 TNBC cells, wild type. The data set is described as follows: MTT viability assay, parental MDA-MB-231. The format is cell-based, human. Particulars: 10 μM dose. A general note: Tetrazolium dyes change colour on reduction, which living cells bring about.
Description: In vitro inhibition of cell growth was assessed by MTT (3-[4, 5-dimethyltiazol-2-yl]-2.5-diphenyl tetrazolium bromide) reagent. Cells (5×10^3) were seeded in a 96-well culture plate and subsequently treated with respective agents at different concentrations as mentioned. Control cells were treated with 0.1% DMSO in culture medium. After treatment, the cells were incubated with 1 mg/ml of MTT reagent at 37° C. for 2-4 hours and then MTT was removed and 50 μL of DMSO was added, followed by colorimetric analysis using a multi-label plate reader at 560 nm (Victor3; PerkinElmer, Wellesley, Mass., USA).
In data set [3] the test system is Klf4, Oct4, SOX2, CD133 in MDA-MB-231 TNBC cells. The data set is described as follows: Western blot, cancer stem cell markers. Particulars: parental and ADR-resistant MDA-MB-231; FIG. 14B.
Description: For protein expression analysis, Western blot (WB) experiments were performed according to the standard procedures. The cells were either untreated or treated with various agents either alone or in combinations as indicated. Following treatment durations, the cells were lysed in cell lysis (10×) buffer (#9803; cell signaling) containing 0.1% of protease and phosphatase inhibitor cocktail (Sigma) for 20 min at 4° C. The lysates were centrifuged at 14,000 rpm at 4° C. for 15-20 min to remove debris. Protein concentrations of whole cell lysates were determined using the Protein Assay Kit. Supernatant proteins, 50-100 μg from each sample, were separated by SDS-polyacrylamide gel electrophoresis (SDS-PAGE) and transferred to polyvinylidene difluoride (PVDF) membrane (Bio-rad, Hercules, Calif.) by standard procedures. […] The antibody-bound proteins were visualized by treatment with the chemiluminescence detection reagent according to manufacturer's instructions, followed by exposure to X-ray film (Denville Scientific Inc.). The same membranes were re-probed with the anti-β-actin or anti-α-tubulin antibody, which was used as an internal control for protein loading.
The test system of data set [4] is MCF-7, SK-BR-3 and MDA-MB-453 breast cancer cells. As to the kind of experiment: MTT viability assay, ADR plus CFM-4.16 in non-TNBC breast cancer cells. The format is cell-based. Particulars: not shown.
Data set [5] has as its system H2461 malignant pleural mesothelioma (MPM) cells. As to the kind of experiment: MTT viability assay, MPM cells. The format is cell-based, human. Particulars: 20 μM; 24 h; FIG. 3A. From the text:
The current inventors' previous studies have indicated cancer cell growth inhibitory properties of CFMs in particular CFM-4 and CFM-5 [Puliyappadamba et al.]. […] J. Biomed. Nanotechnol. 2015; 11:1608-1627]. […] J. Biomed. Nanotechnol. 2015; 11:1608-1627]. On the basis of these findings, it was speculated that solubility and/or potency of the CFM-4 scaffold could be improved for its utility as a novel anti-TNBC molecule. To address this possibility, twelve (12) additional analogs of CFM-4 (Table 2) were synthesized using medicinal chemistry based structure activity relationship (SAR) studies. Each of the analog was suspended in DMSO, and their potency was evaluated in cell culture studies utilizing HeLa cervical cancer, MDA-MB-468 TNBC, and H2461 malignant pleural mesothelioma (MPM) cells by MTT based assays. […] Moreover, a 10 μM dose of CFM-4 inhibited MDA-MB-231 and MDA-MB-468 viabilities by ˜30% and 45%, respectively.

Data set [6] relates to CSC-enriched populations from xenografts of parental and ADR-resistant MDA-MB-231 TNBC cells. As to the kind of experiment: MTT viability of tumor-derived CSC-enriched cells. The format is cell-based, human. Particulars: dose-dependent; FIG. 15C. Here is the method:
The CSC-enriched cells were then treated with ADR, CFM-4.16, or a combination of both for noted dose and time. The cell viabilities were determined by MTT-based assay as in FIGS. 3A-3C, and plotted relative to the MTT values for the respective untreated controls. The histogram columns in panels B and C represent means of three and four independent experiments, respectively; bars, S.E. α, αα, β, ββ, ^*,**,#,##p=<0.03 relative to respective cells treated with ADR+CFM-4.16.
The TNBC cells were obtained from tumors derived from parental and drug-resistant cells or from a two-dimensional culture plate with ˜70-80% confluence. The cells were washed twice in 1×PBS and trypsinized following established protocols. […]
It was next clarified whether and to the extent CFM-4.16 was able to interfere with growth of mammospheres derived from parental and drug-resistant TNBC-cells. […] The growing mammosphere cultures were then exposed to CFM-4.16, and the viabilities of untreated and treated cultures were determined by an MTT-based assay. […]

Turning to `O=C1N(Cc2ccccc2Cl)c2ccccc2C12NN=C(c1cccc(Cl)c1)S2` (stereo not shown) [CFM-4.16], in the data set on HUVECs, the “tubule formation by HUVECs compared with untreated control” value was “rather robust disruption in tubule integrity”. Further, the “tumor growth inhibition (T/C)” value in the data set on MDA-MB-231 TNBC cells is “failed to yield a therapeutic T/C values”. The compound also returned a weight loss in data set [1] (daily iv 24-32 mg/kg days 1-16, total dose 482 mg/kg, by day 7 (recovery by day 18)) of 1.6 % body weight. Moreover, in data set [1] (daily iv, total dose 482 mg/kg), the clinical signs result was “mild ataxia with some tail and leg twitching resolving within 1-2 minutes”; the histology result is “No other histological abnormalities”. Moreover, the “inhibition / loss of cell viability” value in data set [2] was 80-100%. Besides, in data set [3], the “levels of Oct4” value is given as “robust decline in levels of Oct4”. For the same compound, in data set [4], the “effect on ADR-mediated growth inhibition” value is “failed to enhance ADR-mediated growth inhibition”. The “loss of viability compared with CFM-4” value in data set [5] is on record as “greater loss of viability”. The “viabilities of CSC enriched TNBC cells vs untreated” value in data set [6] was “significant loss of viabilities”.
